In a melting point compilation (Tetko et al.; mined from patent text by program, amines drawn as free bases though some values may be those of a salt):

Row | Compound | melting point [°C]
1 | COc1ccc(OCCO[N+](=O)[O-])c(C2NC(C(=O)O)CS2)c1 (stereo not drawn) | 110 to 112
2 | OC1(Cl)C=CC=CC1(O)Cl (stereo not drawn) | 113 to 114
3 | O=C(c1ccc(C(F)(F)F)cc1)c1ccc(O)cn1 | > 260
4 | CCCCc1oc2ccc(-c3nc(C)no3)cc2c1C(=O)c1ccc(OCCCBr)cc1 | 85 to 87
5 | NC1=NC(c2ccncc2)(c2cccc(-c3cccnc3F)c2)C2=NCCCN12 (stereo not drawn) | 125 to 131
6 | CCSc1cccc(-c2nc(=O)c3ccccc3s2)n1 | 161 to 162
7 | CCOC(=O)C(C(=O)OCC)C(N)c1ccc([N+](=O)[O-])cc1C(N)C(C(=O)OCC)C(=O)OCC (stereo not drawn) | 148 to 151
8 | CCC1(COC(=O)C(C)(C)C)COC(=O)C(CC)(CC)N1 (stereo not drawn) | 37 to 41
9 | CN(C)CCNC(=O)c1cccc2c1c(C(=O)C(=O)NC1=CC(=O)OC1)cn2Cc1ccc(Cl)cc1 | 225 to 227
10 | N#Cc1ccc(OCCNC(=O)C2Cc3ccccc3N2S(=O)(=O)c2ccc(-c3cccc(C(F)(F)F)c3)cc2)cc1 (stereo not drawn) | 70 to 80
11 | CCCCCCCC(=O)OCc1ccccc1-c1nc(-c2cccc(OCC)c2)n[nH]1 | 87 to 89
12 | N#Cc1cc([N+](=O)[O-])cc(C#N)c1N | 160 to 163
13 | CCCCCCCCCCCCCCCCC12CCC3=C(CCc4cc(OC)ccc43)C1=CCC2=O (stereo not drawn) | 55 to 56
14 | COc1ccc(C(=O)C2Cc3ccc(O)c(O)c3C2=O)cc1 (stereo not drawn) | 191 to 193
15 | Cc1ccc(C=C2C=C(C(C)(C)C)C=C(C(C)(C)C)C2=O)cc1C | 214 to 217
16 | CCn1c(=O)c(C(=O)O)c(N)c2cccnc21 | 245 to 248
17 | O=C1c2ccccc2CN1CCOc1ccc(CO)cc1 | 106 to 107
18 | CCOC(=O)c1cc(=O)c2c(OCC(C)(O)Oc3ccc(Br)cc3)cccc2o1 (stereo not drawn) | 79 to 80
19 | O=C(O)Cc1cccc(C=C(C(=O)O)c2nc(-c3ccccc3)c(-c3ccccc3)o2)c1 | 178 to 182

Row | Compound | melting point [°C]
20 | COC(=O)c1nc(C)n2c1C(C)N=C(c1ccccc1)c1cc(Cl)ccc1-2 (stereo not drawn) | 217 to 221
21 | CC(CN1CCC(c2noc3cc(F)ccc23)CC1)N1Cc2ccccc2C1 (stereo not drawn) | 164 to 165
22 | O=C(c1ccccc1)c1ccc(OC(=O)C2CCCCC2)cc1 | 111 to 112
23 | N#CC1=CC2(CCSCC2)Oc2ccc([N+](=O)[O-])cc21 | 175 to 176
24 | NC(=O)c1cc(-c2ccc(Cl)cc2)[nH]c1Cl | > 200
25 | O=C(O)Cc1cc(-c2ccc(Cl)cc2)n(-c2ccc(OCc3ccc4ccccc4n3)cc2)n1 | 228 to 230
26 | CCc1ccccc1-c1nc2c3ccccc3ccn2c1N=Cc1ccc(C)cc1 | 158 to 160
27 | COc1ccc(C(=C(c2ccc(C#N)cc2)n2ccnc2)c2ccc(OC)cc2)cc1 | 174 to 176
28 | c1ccc(-c2cn3c(nc4ccccc43)s2)nc1 | 222 to 224
29 | COc1ccc2[nH]c(=O)[nH]c(=O)c2c1OC | 266 to 268
30 | O=S(=O)(Nc1cccc2cc(C3=NCC(CCO)S3)[nH]c12)c1cccs1 (stereo not drawn) | 156 to 158
31 | N#CCNc1cn(-c2cccnc2)nc1Cl | 141 to 143
32 | CCNc1ccc(S(=O)c2ccccc2)cc1[N+](=O)[O-] (stereo not drawn) | 122 to 124
33 | Nc1nc(Cl)c(C(F)(F)F)cc1Cl | 110 to 112
34 | CCCCCCCCCCCCCCOCC(CO)(CO)COCCCCCCCCCCCCCC | 63 to 64
35 | COc1cccc(/C=C/c2cccc(C(=O)O)c2)c1 | 195 to 198
36 | COc1nccc(C(F)(F)F)c1S(=O)(=O)Nc1nc2c(OC)cnc(OC)n2n1 | 214 to 216
37 | COc1ccc2c(c1)c(CN(O)C(=O)CCC(=O)O)c(C)n2C(=O)c1ccc(Cl)cc1 | 134 to 136
38 | CSC1N=C(N)C=C(Cl)N1c1c([N+](=O)[O-])cc(C(F)(F)F)c(Cl)c1[N+](=O)[O-] (stereo not drawn) | 171 to 175

Row | Compound | melting point [°C]
39 | CCc1c2c(nc3cc(F)c(F)cc13)-c1cc3c(c(=O)n1C2)COC(=O)CC3(O)CC (stereo not drawn) | > 275
40 | CCCCNC(=O)OC1c2nccnc2C(=O)N1c1ccc2ccc(Cl)nc2n1 (stereo not drawn) | 264
41 | O=C(c1ccc(F)cc1)C1(c2ccccc2)CCN(Cc2ccccc2)CC1 | 148
42 | CS(=O)(=O)CC(=O)NCCn1ccc2ncnc(Nc3ccc(Oc4cccc(OC(F)(F)F)c4)c(Cl)c3)c21 | 133 to 135
43 | COc1ccc(C(=O)Nc2ccc(C(C)(C)C#N)c(-c3cccc(Cl)c3)c2)cc1OC | 144 to 146
44 | Nc1ccc2c(=O)n3c(nc2c1)C(=Cc1ccc(O)c(O)c1)CC3 | 263 to 265
45 | Nc1sc(-c2ccccc2)c(CN(C2CCCCC2)C2CCCCC2)c1C(=O)c1ccc(Cl)cc1 | 201 to 203
46 | N#Cc1c(N2CCN(C(=O)c3cccs3)CC2)c2cc(Cl)cnc2n(Cc2ccccc2)c1=O | 221
47 | CC(C)(C)OC(=O)Nc1ccc(OC2CNC2)cc1 | 184 to 186
48 | O=c1[nH]c2ccccc2c2c(CO)c(CO)nn12 | 247 to 250
49 | CN1CCC(c2cccc3ccc(O)cc23)CC1 | 144 to 146
50 | O=C(O)C1=Cc2cc(Cl)c(Oc3ccc(Cl)c(F)c3)cc2OC1C(F)(F)F (stereo not drawn) | 207
51 | CCOC(=O)C(=NO)c1csc(NC(c2ccccc2)(c2ccccc2)c2ccccc2)n1 | 260
52 | CCCOc1ccc(/C=C(\C)C(=O)O)cc1 | 171
53 | Cc1ccc(S(=O)(=O)CCOc2ccccc2OCCS(=O)(=O)c2ccc(C)cc2)cc1 | 95 to 96
54 | COc1cc(N)c(Cl)cc1C(=O)NCC1CCN(CCCCCC(=O)c2c(C)oc3ccccc23)CC1 | 133 to 135
55 | O=C(Nc1nccs1)c1c(C(F)(F)F)nc2cc(C(F)(F)F)ccc2c1O | 270
56 | CCOC1=Cc2ccccc2N(C)c2ccc(Br)cc21 | 131

Further lines, results first:

Row | melting point [°C] | Compound
57 | 104 to 105 | CCc1cc(C(F)(C(F)(F)F)C(F)(F)C(F)(F)F)cc(C)c1NC(=O)c1cccc(NC(=O)c2ccc(C#N)cc2C)c1OC (stereo not drawn)
58 | 140 to 142 | CC(C)OC(=O)c1ccc(Cl)cc1S(N)(=O)=O
59 | 182 to 183 | Cc1csc2c(-c3ccccc3)c(-c3ccc(Cl)s3)c(CC(=O)O)n12
60 | 106 to 107 | CCc1c(-c2ccc(OCc3ccccc3)cc2)c2c(COCCCCCN3CCCCC3)cc3c(OCc4ccccc4)ccc1n32
61 | > 360 | CCOC(=O)c1ccc2c(c1)ncn2-c1cc(Cl)ccc1O
62 | 141 | CC(C)CCCSC1c2ccccc2C(=O)N1c1ccc2ccc(Cl)nc2n1 (stereo not drawn)
63 | 79 to 80 | O=C(NCCc1cccc2ccccc12)C(F)(F)F
64 | 59.5 to 60.5 | CCCCCCCCCCCCCc1cc(C(=O)OCC)c[nH]1
65 | 235 to 245 | Cc1c(-c2ccccc2)sc2nc(NCCNC(=O)CCN3CCN(C)CC3)[nH]c(=O)c12
66 | 160 to 161 | CN(C)C(=N)Nc1ccc(F)cc1-c1ccccc1
67 | 118 to 120 | CC(=O)Oc1c(Cc2ccccc2)cc(C(C)=O)c2ccccc12
68 | 162 to 163 | CC1(C)OC(c2ccc(S(N)(=O)=O)cc2)=C(c2ccc(F)cc2)C1=O
69 | 136 to 138 | CN1C(=O)C(CC(O)C#N)c2ccccc21 (stereo not drawn)
70 | 258 | CCc1ccc(-c2nc3ccccc3[nH]2)cc1
71 | 165 to 167 | CNc1cccc(C(=O)O)c1C
72 | 169 to 171 | CC(C)NC(=O)C1=C(C(=O)Nc2cc(OC3CCCC3)c(Cl)cc2F)CCCC1
73 | 138 to 139 | CC1(c2nc(-c3ccc(Cl)cc3)c(CCC(=O)O)o2)CCCCC1
74 | 124 to 126 | Cc1c(Br)cc(S(C)(=O)=O)c(C)c1Cl
75 | 64 to 66 | CCCCCCCCCCCCCCCCCCOc1cc(C(=O)OC)cc([N+](=O)[O-])c1
76 | 210 to 211 | CC(=O)C1=C(O)c2c(c3ccccc3n2C)S(=O)(=O)N1
77 | 142 to 143 | CCCCC(Cc1ccc(OCCNC(=O)c2ccc(-c3cccc(C(=O)O)c3)cc2)cc1)C(=O)O (stereo not drawn)

Row | melting point [°C] | Compound
78 | 111 to 113 | COc1ccc2c(c1)CCC[C@H]2NC(=O)c1cccc(Cl)c1O
79 | 30 to 33 | CC(C)(C)OC(=O)COc1cc(NC(=O)OC(C)(C)C)c(N)cc1-c1ccc(F)cc1
80 | 195 to 199 | Oc1ncccc1C1(O)CCN(CC23CC(c4ccccc42)c2ccccc23)CC1
81 | 148 to 150 | CCCc1c2ccccc2c(O)c2c(=O)cc(C(=O)OCC)oc12
82 | 66 to 67.5 | COC(=O)c1cncn1C1c2ccccc2CCC1(C)C (stereo not drawn)
83 | 183 to 188 | Cn1nc(C(F)(F)C(F)(F)F)cc1O
84 | 163 to 165 | COc1cc2c(cc1Br)-c1cc3c(n1CC2)C(=O)N(C(C)(C)C)CCC3
85 | 276 to 280 | CCOP(=O)(O)Cc1nnc2c(=O)[nH]c3cc(C(F)(F)F)ccc3n12
86 | 141 to 142 | Cc1ccc(-c2nc(NCCN3CCOCC3)cc(Sc3ccc(Cl)cc3)n2)cc1
87 | 267 to 268 | Nc1nc(-c2ccc(F)cc2)c(CC(=O)O)s1
88 | 130 to 131 | CC1C(c2ccccc2)OC(=O)N1C(=O)CC1c2ccccc2CCc2ccccc21 (stereo not drawn)
89 | 60 to 62 | C[C@@H]1C[C@H](CC2CCCCC2)C(=O)O1 (relative stereo)
90 | 192 | COc1ccc2ccc(N3C(=O)c4ccccc4C3OCC(=O)N3CCOCC3)nc2n1 (stereo not drawn)
91 | 99 to 101 | Cc1cc(C(O)C(=O)c2ccccc2)c(C)c(C)c1C (stereo not drawn)
92 | 214 to 215 | CN1CCN(C(=O)c2cc(S(=O)(=O)NC34CC5CC(CC(C5)C3)C4)ccc2N)CC1
93 | 104 to 105 | CCC(CNC(=O)Cc1c(Cl)cncc1Cl)c1cccc(OC)c1 (stereo not drawn)
94 | 42 to 45 | COC(=O)c1c(OC(C)C)c(Br)c(Br)n1C
95 | 147 to 149 | COc1ccc2c3c(c(=O)oc2c1)CN(Cc1ccc(C)cc1)CC3
96 | 123 to 124 | O=c1oc(-c2cccc(Cl)c2)cc(O)c1SCCCCc1ccccc1
97 | 91 to 92 | CC(=O)Sc1cc(-c2ccc(C(F)(F)F)n(C)c2=O)c(F)cc1Cl
98 | 151 | CC(C)n1c(=O)n(C(=O)NCC2CCN(CC3(C(=O)O)CCCCC3)CC2)c2ccccc21
